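Results reflect a 48-hour exposure of cells in 96-well plates to compound at five concentrations. The concentration for full growth arrest is given as TGI.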
What was measured:
Experiment in all cases: NCI-60 cell line screen, 48 h
MOLT-4 leukemia = tested on: MOLT-4 leukemia
SF-539 CNS = tested on: SF-539 CNS
UO-31 renal = tested on: UO-31 renal
SW-620 colon = tested on: SW-620 colon
CCRF-CEM leukemia = tested on: CCRF-CEM leukemia
MDA-N = tested on: MDA-N
NCI-H522 lung = tested on: NCI-H522 lung
CAKI-1 renal = tested on: CAKI-1 renal
OVCAR-8 ovarian = tested on: OVCAR-8 ovarian
A498 renal = tested on: A498 renal
HOP-92 NSCLC = tested on: HOP-92 NSCLC
K-562 leukemia = tested on: K-562 leukemia
SF-268 CNS = tested on: SF-268 CNS
NCI/ADR-RES ovarian = tested on: NCI/ADR-RES ovarian
NCI-H23 lung = tested on: NCI-H23 lung
COLO 205 colon = tested on: COLO 205 colon
MALME-3M melanoma = tested on: MALME-3M melanoma
BT-549 breast = tested on: BT-549 breast
HCC-2998 colon = tested on: HCC-2998 colon
SNB-19 CNS = tested on: SNB-19 CNS
A549 NSCLC = tested on: A549 NSCLC
DU-145 prostate = tested on: DU-145 prostate
UACC-257 melanoma = tested on: UACC-257 melanoma
SN12C renal = tested on: SN12C renal
RPMI-8226 leukemia = tested on: RPMI-8226 leukemia
MCF7 breast = tested on: MCF7 breast
OVCAR-5 ovarian = tested on: OVCAR-5 ovarian
SK-MEL-28 melanoma = tested on: SK-MEL-28 melanoma
ACHN renal = tested on: ACHN renal
MDA-MB-435 = tested on: MDA-MB-435
SNB-75 CNS = tested on: SNB-75 CNS
UACC-62 melanoma = tested on: UACC-62 melanoma
HCT-15 colon = tested on: HCT-15 colon
KM12 colon = tested on: KM12 colon
HL-60(TB) leukemia = tested on: HL-60(TB) leukemia
IGROV1 ovarian = tested on: IGROV1 ovarian
PC-3 prostate = tested on: PC-3 prostate
OVCAR-4 ovarian = tested on: OVCAR-4 ovarian
SR leukemia = tested on: SR leukemia
EKVX NSCLC = tested on: EKVX NSCLC
M14 melanoma = tested on: M14 melanoma
SK-MEL-5 melanoma = tested on: SK-MEL-5 melanoma
HCT-116 colon = tested on: HCT-116 colon
LOX IMVI melanoma = tested on: LOX IMVI melanoma
SK-MEL-2 melanoma = tested on: SK-MEL-2 melanoma
HS 578T breast = tested on: HS 578T breast
HT29 colon = tested on: HT29 colon
T-47D breast = tested on: T-47D breast
RXF 393 renal = tested on: RXF 393 renal
786-0 renal = tested on: 786-0 renal

## CCCSc1ccc2[nH]c(N3C(=O)/C(=C/c4ccccc4)N=C3c3ccccc3)cc2c1
MOLT-4 leukemia
  TGI: > 50 µM
SF-539 CNS
  TGI: > 50 µM
UO-31 renal
  TGI: > 50 µM
SW-620 colon
  TGI: > 50 µM
CCRF-CEM leukemia
  TGI: > 50 µM
MDA-N
  TGI: 20.1 µM
NCI-H522 lung
  TGI: 36 µM
CAKI-1 renal
  TGI: > 50 µM
OVCAR-8 ovarian
  TGI: > 50 µM
A498 renal
  TGI: > 50 µM
HOP-92 NSCLC
  TGI: > 50 µM
K-562 leukemia
  TGI: > 50 µM
SF-268 CNS
  TGI: > 50 µM
NCI/ADR-RES ovarian
  TGI: > 50 µM
NCI-H23 lung
  TGI: > 50 µM
COLO 205 colon
  TGI: 24.6 µM
MALME-3M melanoma
  TGI: > 50 µM
BT-549 breast
  TGI: > 50 µM
HCC-2998 colon
  TGI: 44.6 µM
SNB-19 CNS
  TGI: > 50 µM
A549 NSCLC
  TGI: > 50 µM
DU-145 prostate
  TGI: > 50 µM
UACC-257 melanoma
  TGI: > 50 µM
SN12C renal
  TGI: > 50 µM
RPMI-8226 leukemia
  TGI: 42.9 µM
MCF7 breast
  TGI: > 50 µM
OVCAR-5 ovarian
  TGI: > 50 µM
SK-MEL-28 melanoma
  TGI: > 50 µM
ACHN renal
  TGI: > 50 µM
MDA-MB-435
  TGI: 21.3 µM
SNB-75 CNS
  TGI: > 50 µM
UACC-62 melanoma
  TGI: > 50 µM
HCT-15 colon
  TGI: > 50 µM
KM12 colon
  TGI: > 50 µM
HL-60(TB) leukemia
  TGI: 30.2 µM
IGROV1 ovarian
  TGI: > 50 µM
PC-3 prostate
  TGI: > 50 µM
OVCAR-4 ovarian
  TGI: > 50 µM
SR leukemia
  TGI: > 50 µM
EKVX NSCLC
  TGI: > 50 µM
M14 melanoma
  TGI: > 50 µM
SK-MEL-5 melanoma
  TGI: 44.4 µM
HCT-116 colon
  TGI: > 50 µM
LOX IMVI melanoma
  TGI: > 50 µM
SK-MEL-2 melanoma
  TGI: 18 µM
HS 578T breast
  TGI: > 50 µM
HT29 colon
  TGI: > 50 µM
T-47D breast
  TGI: > 50 µM
RXF 393 renal
  TGI: > 50 µM
786-0 renal
  TGI: > 50 µM
